# Measurements published in US20240158370A1, “CK1 alpha AND DUAL CK1 alpha / GSPT1 DEGRADING COMPOUNDS” (Innovo Therapeutics, Inc., priority 2022, published 2024).
# Assays:
# [1] = biological target: T1, CK1α (Homo sapiens, UniProt P48729+Q96SW2); assay: HiBiT degradation assay, CK1α, Procedure A; assay type: cell-based; settings: six hours
# T1 construct: CSNK1A1-HiBit KI HEK293(LgBit) Cells; host or cells: HEK293(LgBit) knock-in cells
# How it was run: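 Luminescence from HiBiT lytic detection, read after 20 min shaking, gave DC50 and Ymin by 4-parameter fit. Before that, cells (1×10^6 cells/ml, DMEM+10% FBS) sat 6 h at 37° C on 10-point compound series (10 μM–0.005 μM, 0.1% DMSO).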
# [2] = biological target: GSPT1 (Homo sapiens, UniProt P15170+Q96SW2); assay: HiBiT degradation assay, GSPT1, Procedure B (Molt 4_hGSPT1_HiBIT cells); assay type: cell-based; design: Molt 4_hGSPT1_HiBIT N-terminus tagged cells were generated using CRISPR technology; endogenous in cells; host or cells: Molt 4 cells, CRISPR-edited; settings: six hours
# Description: Molt 4_hGSPT1_HiBIT N-terminus tagged cells were generated using CRISPR technology. Cells were maintained in RPMI media (Thermo Fisher Scientific, Catalog #11875-093) containing 10% Fetal Bovine Serum (Thermo Fisher Scientific, Catalog #16140071) 1% Penicillin-Streptomycin (Thermo Fisher Scientific, Catalog #25200056). Cells were maintained at 37° C. in a 5% CO2 environment.
# Compounds were spotted onto Cornin 384-Well, Cell Culture-Treated, Flat-Bottom, Low Flange Microplate (Fisher Scientific, Catalog #07-201-013) using a Tecan D300e digital dispenser. Ten-point dose response curves spanning from 10 μM to 0.005 μM with a 0.1% DMSO tolerance were used.
# Cells were centrifuged for 5 minutes at 1200 RPMs. Cell culture media was aspirated off and cells were resuspended with RPMI+10% FBS. Cell density was determined using a Denovix CellDrop BF cell counter. Cell density was adjusted to 1×10^6 cells/ml. 40 μl of cells was added to compound treated tissue culture plates and incubated for six hours at 37° C. After six hours, cell culture plates were removed from tissue culture incubator and cooled to room temperature. 40 μl of Nano-GloHiBiT Lytic Detection Reagent (Promega, Catalog #N3040) was added to each well. Plates were placed on an orbital shaker (600 rpm) for 20 minutes. Luminescence was measured using an Envsion plate reader (Perkin Elmer). IC50 curves and Ymin were generated using a 4-parameter curve fit with GraphPad Prism software (Prism Corporation).
# Results from the HiBiT assay (DC50 (nM) and Ymin (% remaining)) are shown below. All CK1α data was generated according to Procedure A. GSPT1 data for Examples 1-600, 603-620 and 703-705 was generated according to Procedure A. GSPT1 data for Examples 601, 621-702 and 706-735 was generated according to Procedure B.
# T1 sequence (P48729 whole entry): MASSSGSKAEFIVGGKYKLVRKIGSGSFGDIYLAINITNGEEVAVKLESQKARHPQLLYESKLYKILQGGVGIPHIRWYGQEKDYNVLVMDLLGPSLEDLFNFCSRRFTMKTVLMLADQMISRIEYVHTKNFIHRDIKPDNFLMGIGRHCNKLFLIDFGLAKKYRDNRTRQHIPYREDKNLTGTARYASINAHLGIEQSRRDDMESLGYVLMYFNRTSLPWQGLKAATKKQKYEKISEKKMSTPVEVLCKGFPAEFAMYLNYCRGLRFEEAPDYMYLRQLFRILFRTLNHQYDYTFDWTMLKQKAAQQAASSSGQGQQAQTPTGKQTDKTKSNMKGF
# T1 sequence (Q96SW2 whole entry): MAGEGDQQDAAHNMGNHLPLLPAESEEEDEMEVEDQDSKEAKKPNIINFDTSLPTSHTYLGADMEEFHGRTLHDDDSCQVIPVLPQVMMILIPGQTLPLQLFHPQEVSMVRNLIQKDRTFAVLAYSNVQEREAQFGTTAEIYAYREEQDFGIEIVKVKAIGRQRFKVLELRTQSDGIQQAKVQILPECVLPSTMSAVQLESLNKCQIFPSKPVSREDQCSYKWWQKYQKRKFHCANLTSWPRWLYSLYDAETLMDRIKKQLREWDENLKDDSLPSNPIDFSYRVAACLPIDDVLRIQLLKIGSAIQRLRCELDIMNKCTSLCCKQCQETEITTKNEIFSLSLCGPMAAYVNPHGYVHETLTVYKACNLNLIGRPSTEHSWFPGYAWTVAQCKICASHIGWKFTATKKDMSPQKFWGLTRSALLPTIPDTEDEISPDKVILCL
# T1 sequence (Q16531 whole entry partner): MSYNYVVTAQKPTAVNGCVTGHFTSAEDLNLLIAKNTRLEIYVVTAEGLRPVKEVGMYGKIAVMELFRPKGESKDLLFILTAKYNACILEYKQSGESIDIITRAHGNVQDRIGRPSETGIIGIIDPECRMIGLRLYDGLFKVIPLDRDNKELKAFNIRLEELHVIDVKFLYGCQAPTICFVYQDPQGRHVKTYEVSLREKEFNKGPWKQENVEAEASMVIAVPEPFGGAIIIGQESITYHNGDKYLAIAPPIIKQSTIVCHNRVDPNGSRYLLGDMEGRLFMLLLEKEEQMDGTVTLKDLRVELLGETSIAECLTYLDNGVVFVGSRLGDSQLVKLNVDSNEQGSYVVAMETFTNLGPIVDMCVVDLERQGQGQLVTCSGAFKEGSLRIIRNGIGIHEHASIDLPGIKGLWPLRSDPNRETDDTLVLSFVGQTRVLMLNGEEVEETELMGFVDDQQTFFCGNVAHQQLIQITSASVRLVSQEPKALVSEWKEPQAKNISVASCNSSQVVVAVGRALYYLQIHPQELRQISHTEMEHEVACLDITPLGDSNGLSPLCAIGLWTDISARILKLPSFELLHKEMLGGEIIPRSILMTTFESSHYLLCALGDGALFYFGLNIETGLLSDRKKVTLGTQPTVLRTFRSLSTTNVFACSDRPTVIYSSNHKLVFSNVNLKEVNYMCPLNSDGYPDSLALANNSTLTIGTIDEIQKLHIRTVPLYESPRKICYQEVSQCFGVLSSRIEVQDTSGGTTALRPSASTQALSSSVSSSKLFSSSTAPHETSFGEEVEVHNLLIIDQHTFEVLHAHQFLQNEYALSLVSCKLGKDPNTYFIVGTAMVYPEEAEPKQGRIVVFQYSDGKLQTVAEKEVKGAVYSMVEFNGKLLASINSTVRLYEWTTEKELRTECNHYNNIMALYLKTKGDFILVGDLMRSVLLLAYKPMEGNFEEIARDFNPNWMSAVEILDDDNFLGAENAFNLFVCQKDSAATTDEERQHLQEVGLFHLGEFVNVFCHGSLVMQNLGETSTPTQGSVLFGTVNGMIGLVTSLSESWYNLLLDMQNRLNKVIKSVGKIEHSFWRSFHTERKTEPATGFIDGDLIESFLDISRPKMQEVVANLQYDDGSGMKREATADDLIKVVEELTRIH
# Chain of GSPT1 (P15170 whole entry): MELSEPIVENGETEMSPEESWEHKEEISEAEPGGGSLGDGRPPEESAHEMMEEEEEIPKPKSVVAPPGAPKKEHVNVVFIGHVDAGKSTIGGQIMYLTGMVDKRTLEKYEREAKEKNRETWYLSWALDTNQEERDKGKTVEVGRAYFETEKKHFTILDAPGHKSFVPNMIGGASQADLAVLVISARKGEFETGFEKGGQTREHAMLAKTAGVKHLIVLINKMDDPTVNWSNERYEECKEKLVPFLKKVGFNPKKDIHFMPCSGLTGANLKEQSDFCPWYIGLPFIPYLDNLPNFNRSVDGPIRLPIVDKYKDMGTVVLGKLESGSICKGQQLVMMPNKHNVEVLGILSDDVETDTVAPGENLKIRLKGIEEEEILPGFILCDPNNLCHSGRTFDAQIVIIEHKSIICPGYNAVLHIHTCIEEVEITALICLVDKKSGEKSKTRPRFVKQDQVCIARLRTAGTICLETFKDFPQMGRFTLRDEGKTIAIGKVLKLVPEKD
# Chain of GSPT1 (Q96SW2 whole entry): as the sequence (Q96SW2 whole entry) above
# Chain of GSPT1 (Q16531 whole entry partner): as the sequence (Q16531 whole entry partner) above
SMILES,CK1α Ymin [1],DC50 [1],DC50 [2],GSPT1 Ymin [2]
Cc1ccc(-c2nc(-c3ccc4c(c3)CN(C3CCC(=O)NC3=O)C4=O)cn2C)c(Cl)c1 (stereo not shown) [Example 648],D (D = >10- 25% remaining),< 25 nM,< 25 nM,F (F = >75-100% remaining)
Cn1cc(-c2ccc3c(c2)CN(C2CCC(=O)NC2=O)C3=O)nc1-c1ccccc1C(F)(F)F (stereo not shown) [Example 649],D (D = >10- 25% remaining),< 25 nM,< 25 nM,E (E = >25-75% remaining)
Cc1cccc(-c2nc(-c3ccc4c(c3)CN(C3CCC(=O)NC3=O)C4=O)cn2C)c1C (stereo not shown) [Example 650],D (D = >10- 25% remaining),< 25 nM,< 25 nM,F (F = >75-100% remaining)
Cc1cccc(F)c1-c1nc(-c2ccc3c(c2)CN(C2CCC(=O)NC2=O)C3=O)cn1C (stereo not shown) [Example 651],D (D = >10- 25% remaining),< 25 nM,< 25 nM,E (E = >25-75% remaining)
Cn1cc(-c2ccc3c(c2)CN(C2CCC(=O)NC2=O)C3=O)nc1-c1ccc2ccccc2c1 (stereo not shown) [Example 652],D (D = >10- 25% remaining),< 25 nM,< 25 nM,F (F = >75-100% remaining)
Cn1cc(-c2ccc3c(c2)CN(C2CCC(=O)NC2=O)C3=O)nc1-c1ccc(F)cc1F (stereo not shown) [Example 653],D (D = >10- 25% remaining),< 25 nM,≥ 25 nM,F (F = >75-100% remaining)
Cn1cc(-c2ccc3c(c2)CN(C2CCC(=O)NC2=O)C3=O)nc1-c1ccc(C#N)cc1F (stereo not shown) [Example 654],D (D = >10- 25% remaining),< 25 nM,< 25 nM,F (F = >75-100% remaining)
Cn1cc(-c2ccc3c(c2)CN(C2CCC(=O)NC2=O)C3=O)nc1-c1ccc(C#N)c(F)c1 (stereo not shown) [Example 655],E (E = >25-75% remaining),< 25 nM,≥ 25 nM,F (F = >75-100% remaining)
Cn1cc(-c2ccc3c(c2)CN(C2CCC(=O)NC2=O)C3=O)nc1-c1ccccc1F (stereo not shown) [Example 656],E (E = >25-75% remaining),< 25 nM,≥ 25 nM,F (F = >75-100% remaining)
Cn1cc(-c2ccc3c(c2)CN(C2CCC(=O)NC2=O)C3=O)nc1-c1ccc(CO)cc1 (stereo not shown) [Example 657],D (D = >10- 25% remaining),< 25 nM,≥ 25 nM,F (F = >75-100% remaining)
Cn1cc(-c2ccc3c(c2)CN(C2CCC(=O)NC2=O)C3=O)nc1-c1ccc2nccn2c1 (stereo not shown) [Example 658],D (D = >10- 25% remaining),≥ 25 nM,≥ 25 nM,F (F = >75-100% remaining)
Cn1cc(-c2ccc3c(c2)CN(C2CCC(=O)NC2=O)C3=O)nc1-c1cncc2ccccc12 (stereo not shown) [Example 659],E (E = >25-75% remaining),< 25 nM,≥ 25 nM,F (F = >75-100% remaining)
Cn1cc(-c2ccc3c(c2)CN(C2CCC(=O)NC2=O)C3=O)nc1-c1ccc2ncccc2c1 (stereo not shown) [Example 660],D (D = >10- 25% remaining),< 25 nM,< 25 nM,E (E = >25-75% remaining)
Cn1cc(-c2ccc3c(c2)CN(C2CCC(=O)NC2=O)C3=O)nc1-c1ccc(Cl)c(F)c1 (stereo not shown) [Example 661],E (E = >25-75% remaining),< 25 nM,≥ 25 nM,F (F = >75-100% remaining)
Cn1cc(-c2ccc3c(c2)CN(C2CCC(=O)NC2=O)C3=O)nc1-c1c[nH]c2ncccc12 (stereo not shown) [Example 662],E (E = >25-75% remaining),< 25 nM,≥ 25 nM,F (F = >75-100% remaining)
Cc1ccc(-c2nc(-c3ccc4c(c3)CN(C3CCC(=O)NC3=O)C4=O)cn2C)c(N)c1 (stereo not shown) [Example 663],E (E = >25-75% remaining),< 25 nM,< 25 nM,F (F = >75-100% remaining)
